From patent US20040175691A1, “Use of the KCNQ2 and KCNQ3 genes for the discovery of agents useful in the treatment of neurological disorders” (priority 1998, published 2004) come the findings set out here.

The target in assay [1] is T1, M-current (Rattus norvegicus, UniProt O88943+O88944).
T1 construct: from tissue
Put plainly: Blockade of native M-current in SCG neurons (voltage clamp, intact ganglia). Format: cell-based. The conditions noted are these: rat sympathetic neurons; read-out: KD for TEA blockade of native M-current. The protocol:
Method: Recordings of the M-current in sympathetic neurons in intact ganglia were performed at room temperature as described previously (Wang and McKinnon, 1995). The standard extracellular recording solution was: NaCl (133 mM, KCl (4.7 mM), NaH2PO4 (1.3 mM), NaHCO3 (16.3 mM), CaCl2 (2 mM), MgCl2 (1.2 mM) and glucose (1.4 g/liter), bubbled with 95% O2-5% CO2 to give pH 7.2-7.4.
A. Blockade of M-current in SCG neurons by XE991. Holding potential was −30 mV and step potential was −50 mV for 1 second. The shift in holding current following drug application is due to the inhibition of M-current activated at the holding potential.
Maximal block of native M-current was 93±2%. Data points are averages and error bars represent s.e.m.

The target of assay [2] is KCNQ2 (Homo sapiens, UniProt O43526, DEL417-446). Put plainly: Blockade of KCNQ2 channels expressed in Xenopus oocytes. It counts as cell-based. More on the design: Full-length KCNQ2 cDNAs were amplified from adult human brain cDNA; expressed in transfected cells; host or cells: Xenopus oocytes injected with cRNA. To be noted: homomultimeric KCNQ2, oocytes; Hill coefficient set to unity; read-out: KD for TEA block of KCNQ2 channels. On the procedure:
(§1) Method: Full-length KCNQ2 cDNAs were amplified from adult human brain cDNA using the following primers ([…], […]) with the Expand Fidelity enzyme mixture (Boehringer Mannheim, Indianapolis). […] This region is also alternatively spliced in the KCNQ2 cDNA clone described by Biervert et al. (1998). Preparation, injection of cRNA and recording from oocytes was performed at room temperature as described previously (Dixon et al. 1996). The standard extracellular recording solution contained: 82 mM NaCl, 2 mM KCl, 1.8 mM CaCl2, 1 mM MgCl2, and 5 mM Na-HEPES (pH 7.6). Data collection and analysis were performed using pClamp software (Axon Instruments, Foster City, Calif.).
IC50 values are all expressed in μM, mean±s.e.m.

The target of assay [3] is T2, KCNQ2 + KCNQ3 (UniProt O43526+O88944, DEL417-446).
T2 construct: Full-length KCNQ2 cDNAs were amplified from adult human brain cDNA; Multiple full-length cDNA clones were amplified in independent PCR reactions from rat SCG cDNA; expressed in transfected cells; host or cells: Xenopus oocytes injected with cRNA
The assay can be described thus: Blockade of KCNQ2+KCNQ3 channels expressed in Xenopus oocytes. Format: cell-based, human KCNQ2, rat KCNQ3. On the procedure: as §1
Holding potential was −60 mV and the cell was repetitively depolarized to −30 mV for 1 minute to reach steady-state blockade. Tail currents were recorded at −50 mV.
IC50 values are all expressed in μM, mean±s.e.m. In cases where the IC50 values were greater than 100 μM the exact value is not reported due to limited solubility in the drug.

The target of assay [4] is T3, hKCNQ2 potassium channel (Homo sapiens, UniProt O43526, DEL417-446).
T3 construct: Full-length hKCNQ2 cDNAs were amplified from adult human brain cDNA; expressed in transfected cells; host or cells: 293 EBNA (HEK 293E) cells, episomal plasmid pm3AR-hKCNQ2-1, hygromycin B selection
The assay can be described thus: Membrane potential-evoked fluorescence (FLIPR, DiBAC) in HEK 293E cells stably expressing hKCNQ2. It counts as cell-based. The conditions noted are these: FIG. 7. The protocol: The ability of KCNQ2 modulators to alter membrane potential was assessed using a fluorescence imaging plate reader (FLIPR). Cultured HEK 293E cells expressing hKCNQ2 channels are plated on poly-D-lysine-coated 96-well Costar microplates (#3603) at 300,000-750,000 cells/ml and allowed to reach confluence in DMEM (with 10% FBS and 250 ug/ml hygromycin B) at 37° C. and 5% CO2. After reaching confluence, growth medium is removed, replaced with a standard Hank's balanced salt solution containing 5 uM dibac(4)3, bis-oxonol (Molecular Probes # B-438) at 37° C. The cell plate is then placed in the recording chamber (equilibrated to 37° C.) of a fluorescence imaging plate reader (FLIPR; Molecular Devices) along with two drug plates (one containing standard Hank's balanced salt solution+dibac and the other containing standard Hank's balanced salt solution+dibac+test compound at various experimental concentrations).
These cells were loaded with the voltage-sensitive fluorescent dye, DiBAC, that distributes across cell membranes in a voltage-dependent manner. As cells depolarize (become more positive inside), more dye enters the cells and an increase in fluorescence occurs.
In FIG. 7, the relative effects of several M-current modulators on the flourescence of HEK 293E cells stably expressing the hKCNQ2 potassium channel is shown. These cells were loaded with the voltage-sensitive fluorescent dye, DiBAC, that distributes across cell membranes in a voltage-dependent manner. As cells depolarize, more dye enters the cells and an increase in fluorescence occurs. Conversely, as cells hyperpolarize (become more negative inside), more dye leaves the cells and a decrease in fluorescence occurs.

A word on the Kd: it is the free concentration of one partner at which half of the binding sites on the other are occupied at equilibrium, for simple one-to-one binding.

Take `CC[N+](CC)(CC)CC` [TEA, tetraethylammonium]: the dissociation constant Kd in assay [1] worked out at 6.1 mM; in assay [2] it was 160 ± 20 µM; in assay [3] (co-injection of KCNQ2 and KCNQ3 mRNAs, read-out: KD for TEA block of KCNQ2+KCNQ3 channels), 3.5 ± 0.7 mM. Also, the “Hill coefficient of TEA block of KCNQ2+KCNQ3 channels” value in assay [3] (dose response fitted with Hill equation) is on record as 0.82±0.03.
On to `Nc1ccc(CC2(Cc3ccc(N)cc3)C(=O)N(c3ccccc3)c3ccccc32)cc1` [X7315], for which the figures for the “Relative effect on fluorescence / membrane potential” value in assay [4] (3 μM) and in assay [4] (100 μM) were “no effect” and “apparent membrane hyperpolarization”, respectively.
For `O=C1c2ccccc2C(Cc2ccnc(F)c2)(Cc2ccnc(F)c2)c2ccccc21` [XR543], the “Relative effect on fluorescence / membrane potential” value in assay [4] (3 μM) is listed as “more membrane depolarization than linopirdine”.
